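How tested: cells in 96-well plates exposed to compound for 48 hours at five concentrations. GI50 is the concentration that inhibits growth by half.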 Calls of active or inactive are those of the source. No stated cut-off is given here; in the data, active = GI50 up to about 1.1 µM and inactive = higher.
Assays:
Experiment in all cases: DTP human tumour cell line panel, 48 h
COLO 205 = system: COLO 205
Malme-3M = system: Malme-3M
DMS-114 = system: DMS-114
CAKI-1 = system: CAKI-1
NCI-H226 = system: NCI-H226
OVCAR-5 = system: OVCAR-5
OVCAR-8 = system: OVCAR-8
OVCAR-4 = system: OVCAR-4
HL-60 = system: HL-60
SK-MEL-5 = system: SK-MEL-5
M14 = system: M14
SK-MEL-2 = system: SK-MEL-2
EKVX = system: EKVX
ACHN = system: ACHN
HOP-92 = system: HOP-92
UO-31 = system: UO-31
SR = system: SR

Measured: GI50

O=C(c1ccccc1)C(c1ccccc1)C1(O)C(=O)Nc2c(Cl)cc(Cl)cc21 (configuration not stated)
inactive: COLO 205 19.1 µM | Malme-3M 18.6 µM | DMS-114 16.5 µM | CAKI-1 17.4 µM | NCI-H226 16.7 µM | OVCAR-5 17.1 µM | OVCAR-8 16.1 µM | OVCAR-4 13.7 µM | HL-60 12.6 µM | SK-MEL-5 15.8 µM | M14 17.9 µM | SK-MEL-2 16.8 µM | EKVX 14.2 µM | ACHN 17.1 µM | HOP-92 18.9 µM | UO-31 18.9 µM

Cc1ccc(C(=O)O)cc1NC(=O)c1cc(/C=C/c2ccccc2)[nH]c(=S)n1
inactive: COLO 205 > 65.8 µM | Malme-3M > 100 µM | DMS-114 > 57 µM | CAKI-1 > 100 µM | NCI-H226 > 100 µM | OVCAR-5 > 100 µM | OVCAR-8 > 100 µM | OVCAR-4 > 100 µM | HL-60 > 69 µM | SK-MEL-5 > 100 µM | M14 > 100 µM | EKVX > 100 µM | ACHN > 89.9 µM | HOP-92 > 100 µM | SR > 100 µM | UO-31 > 100 µM

COc1cc([C@@H]2c3cc4c(cc3[C@@H](NC(=O)c3ccccc3)C3COC(=O)[C@@H]32)OCO4)cc(OC)c1O (some centres not stated)
inactive: COLO 205 17.5 µM | Malme-3M 3.61 µM | DMS-114 2.61 µM | CAKI-1 11.3 µM | NCI-H226 1.53 µM | OVCAR-5 49.9 µM | OVCAR-8 8.99 µM | OVCAR-4 39.7 µM | HL-60 1.87 µM | SK-MEL-5 2.31 µM | M14 5.57 µM | SK-MEL-2 20.3 µM | EKVX 21.4 µM | ACHN 1.45 µM | HOP-92 8.39 µM | UO-31 4.89 µM

O=Cc1c[nH]c2c(=O)[nH]cnc12
inactive: COLO 205 > 100 µM | Malme-3M > 100 µM | DMS-114 > 100 µM | CAKI-1 > 100 µM | OVCAR-8 > 100 µM | HL-60 > 100 µM | SK-MEL-5 > 100 µM | M14 > 100 µM | SK-MEL-2 > 100 µM | EKVX > 100 µM | ACHN > 100 µM | HOP-92 > 100 µM | SR > 100 µM | UO-31 > 100 µM

CCN(CC)CCOC(c1ccccc1)c1ccccc1.CCOC(=O)Nc1ccc(S(=O)(=O)NCCCl)cc1.CCOC(=O)Nc1ccc(S(=O)(=O)NCCCl)cc1.Nc1ccc(C(=O)O)c(O)c1
inactive: COLO 205 > 100 µM | Malme-3M > 100 µM | DMS-114 > 100 µM | CAKI-1 > 100 µM | NCI-H226 > 100 µM | OVCAR-5 > 100 µM | OVCAR-8 > 100 µM | OVCAR-4 > 100 µM | HL-60 > 100 µM | SK-MEL-5 > 100 µM | M14 > 100 µM | SK-MEL-2 > 100 µM | EKVX > 100 µM | ACHN > 100 µM | HOP-92 > 100 µM | UO-31 > 100 µM

N#CC(NNC(=O)c1ccccc1O)c1cccc(O)c1 (configuration not stated)
inactive: COLO 205 32.7 µM | Malme-3M 12.9 µM | DMS-114 3.61 µM | CAKI-1 5.43 µM | NCI-H226 11.5 µM | OVCAR-5 54.7 µM | OVCAR-8 8.22 µM | OVCAR-4 3.36 µM | HL-60 4.74 µM | SK-MEL-5 18.2 µM | M14 6.35 µM | SK-MEL-2 5.7 µM | ACHN 2.31 µM | HOP-92 4.25 µM | SR > 100 µM | UO-31 1.55 µM

CS(=O)(=O)ON1C(=O)c2ccc(N)cc2C1=O
inactive: COLO 205 49.5 µM | Malme-3M > 100 µM | DMS-114 > 74.5 µM | NCI-H226 > 100 µM | OVCAR-5 > 100 µM | OVCAR-8 21.7 µM | OVCAR-4 > 100 µM | HL-60 17.5 µM | SK-MEL-5 > 100 µM | M14 > 87.3 µM | SK-MEL-2 > 100 µM | EKVX > 100 µM | ACHN > 100 µM | HOP-92 > 100 µM | SR 30 µM | UO-31 > 100 µM

COc1cc2nncc(Sc3cnnc4ccccc34)c2cc1OC
inactive: COLO 205 22.6 µM | Malme-3M 17.2 µM | DMS-114 9.95 µM | CAKI-1 11.8 µM | NCI-H226 23.7 µM | OVCAR-5 27 µM | OVCAR-4 10.1 µM | HL-60 22.1 µM | SK-MEL-5 14.2 µM | M14 18 µM | SK-MEL-2 16.7 µM | EKVX 37.1 µM | ACHN 20.1 µM | HOP-92 6.14 µM | UO-31 19.1 µM

COc1cc(CC2C(=O)OCC2[C@@H](OC(C)=O)c2ccc3c(c2)OCO3)c(Br)c(OC)c1OC (some centres not stated)
inactive: COLO 205 36.8 µM | Malme-3M 37.9 µM | DMS-114 28 µM | CAKI-1 > 100 µM | OVCAR-8 > 100 µM | OVCAR-4 90.6 µM | HL-60 35.6 µM | SK-MEL-5 30.9 µM | M14 50.9 µM | SK-MEL-2 61.4 µM | EKVX > 100 µM | ACHN 99.8 µM | HOP-92 12 µM | SR 29.4 µM | UO-31 53.3 µM

CC1=NN(C(=O)c2ccc(Cl)cc2)C(=O)/C1=C/c1cccc(O)c1
inactive: COLO 205 > 100 µM | Malme-3M > 100 µM | DMS-114 > 100 µM | CAKI-1 > 100 µM | NCI-H226 > 100 µM | OVCAR-5 > 100 µM | OVCAR-8 > 100 µM | OVCAR-4 > 100 µM | HL-60 > 100 µM | SK-MEL-5 > 100 µM | M14 > 100 µM | SK-MEL-2 > 100 µM | EKVX > 100 µM | ACHN > 100 µM | HOP-92 > 100 µM | UO-31 > 100 µM

CN(CCO)c1nc(=O)c2c(n1C1OC(CO)C(O)C(O)C1O)CCCC2 (configuration not stated)
inactive: COLO 205 > 100 µM | Malme-3M > 100 µM | DMS-114 > 100 µM | CAKI-1 > 100 µM | NCI-H226 > 100 µM | OVCAR-5 > 100 µM | OVCAR-8 > 100 µM | HL-60 > 100 µM | SK-MEL-5 > 100 µM | M14 > 100 µM | SK-MEL-2 > 100 µM | EKVX > 100 µM | ACHN > 100 µM | HOP-92 > 100 µM | SR > 100 µM | UO-31 > 100 µM

c1ccc2c3c([nH]c2c1)[C@H]1C2CCCCN2CN1CC3 (some centres not stated)
inactive: COLO 205 > 100 µM | Malme-3M 83.6 µM | DMS-114 47.8 µM | CAKI-1 > 100 µM | OVCAR-5 > 100 µM | OVCAR-8 > 100 µM | OVCAR-4 > 100 µM | HL-60 47.2 µM | SK-MEL-5 > 100 µM | M14 > 100 µM | SK-MEL-2 > 100 µM | EKVX > 100 µM | ACHN > 100 µM | HOP-92 > 100 µM | UO-31 > 100 µM
